Key:
Type in all cases: in vivo
[1] = tested on: Diabrotica Balteata; assay: Diabrotica balteata (corn root worm), maize sprouts, L2 larvae; details: 96 h, application rate 200 ppm, 4 days after infestation, read-out: effect in at least one of the two categories (mortality or growth inhibition)
Protocol: Example B2: Diabrotica Balteata (Corn Root Worm)
Maize sprouts placed onto an agar layer in 24-well microtiter plates were treated with aqueous test solutions prepared from 10′000 ppm DMSO stock solutions by spraying. After drying, the plates were infested with L2 larvae (6 to 10 per well). The samples were assessed for mortality and growth inhibition in comparison to untreated samples 4 days after infestation.

[2] = tested on: Spodoptera littoralis; assay: Spodoptera littoralis (Egyptian cotton leaf worm), cotton leaf discs, L1 larvae; details: foliar, 72 h, application rate 200 ppm, L1 larvae on cotton leaf discs, 3 days after infestation
Protocol: Example B8: Spodoptera littoralis (Egyptian Cotton Leaf Worm)
Cotton leaf discs were placed onto agar in 24-well microtiter plates and sprayed with aqueous test solutions prepared from 10′000 ppm DMSO stock solutions. After drying the leaf discs were infested with five L1 larvae. The samples were assessed for mortality, anti-feeding effect, and growth inhibition in comparison to untreated samples 3 days after infestation. Control of Spodoptera littoralis by a test sample is given when at least one of the categories mortality, anti-feedant effect, and growth inhibition is higher than the untreated sample.

[3] = tested on: Plutella xylostella; assay: Plutella xylostella (diamond back moth), artificial diet, L2 larvae; details: 120 h, application rate 200 ppm, 5 days after infestation, read-out: effect in at least one of the two categories (mortality or growth inhibition)
Protocol: Example B7: Plutella xylostella (Diamond Back Moth)
24-well microtiter plates with artificial diet were treated with aqueous test solutions prepared from 10′000 ppm DMSO stock solutions by pipetting. After drying, the plates were infested with L2 larvae (10 to 15 per well). The samples were assessed for mortality and growth inhibition in comparison to untreated samples 5 days after infestation.

[4] = tested on: Myzus persicae; assay: Myzus persicae (green peach aphid) feeding/contact activity, sunflower leaf discs; details: foliar, 144 h, application rate 200 ppm, 6 days after infestation
Protocol: Example B5: Myzus persicae (Green Peach Aphid): Feeding/Contact Activity
Sunflower leaf discs were placed onto agar in a 24-well microtiter plate and sprayed with aqueous test solutions prepared from 10′000 ppm DMSO stock solutions. After drying, the leaf discs were infested with an aphid population of mixed ages. The samples were assessed for mortality 6 days after infestation.

[5] = tested on: Bemisia tabaci; assay: Bemisia tabaci (cotton white fly) feeding/contact activity, cotton leaf discs; details: foliar, 144 h, application rate 200 ppm, adult white flies, 6 days after incubation
Protocol: Example B1: Bemisia tabaci (Cotton White Fly): Feeding/Contact Activity
Cotton leaf discs were placed on agar in 24-well microtiter plates and sprayed with aqueous test solutions prepared from 10′000 ppm DMSO stock solutions. After drying the leaf discs were infested with adult white flies. The samples were checked for mortality 6 days after incubation.

[6] = tested on: Thrips tabaci; assay: Thrips tabaci (onion thrips) feeding/contact activity, sunflower leaf discs; details: foliar, 144 h, application rate 200 ppm, population of mixed ages, 6 days after infestation
Protocol: Example B11: Thrips tabaci (Onion Thrips) Feeding/Contact Activity
Sunflower leaf discs were placed on agar in 24-well microtiter plates and sprayed with aqueous test solutions prepared from 10′000 ppm DMSO stock solutions. After drying the leaf discs were infested with a thrips population of mixed ages. The samples were assessed for mortality 6 days after infestation.

[7] = tested on: Myzus persicae; assay: Myzus persicae (green peach aphid) systemic activity, pea seedling roots; details: 144 h, test rate 24 ppm, 6 days after placing seedlings into test solutions
[8] = tested on: Spodoptera littoralis; assay: Spodoptera littoralis (Egyptian cotton leaf worm), uptake by lettuce roots from agar, eggs; details: 144 h, test rate 12.5 ppm, lettuce root uptake, 6 days after infestation, read-out: effect in at least one of the three categories (mortality, anti-feeding, or growth inhibition)
Source text: Example B9: Spodoptera littoralis (Egyptian Cotton Leaf Worm)
Test compounds were applied by pipette from 10′000 ppm DMSO stock solutions into 24-well plates and mixed with agar. Lettuce seeds were placed onto the agar and the multi well plate was closed by another plate which contained also agar. After 7 days the compound was absorbed by the roots and the lettuce grew into the lid plate. The lettuce leaves were then cut off into the lid plate. Spodoptera eggs were pipetted through a plastic stencil onto a humid gel blotting paper and the lid plate was closed with it. The samples were assessed for mortality, anti-feedant effect and growth inhibition in comparison to untreated samples 6 days after infestation.

[9] = tested on: Anopheles stephensi; assay: Anopheles stephensi (Indian malaria mosquito), dry deposit in 12 well plates, adult females; details: application rate 200 ppm in ethanol, after 48 h and/or 24 h
Protocol: Example B13: Anopheles stephensi (Indian Malaria Mosquito)
Test solutions, at an application rate of 200 ppm in ethanol, were applied to 12 well tissue culture plates. Once the deposits were dry, five, two to five day old adult female Anopheles stephensi were added to each well, and sustained with a 10% sucrose solution in a cotton wool plug. Assessment of knockdown was made one hour after introduction, and mortality was assessed at 24 and 48 hours after introduction.

[10] = tested on: Euschistus heros; assay: Euschistus heros (neotropical brown stink bug), soybean leaves, N2 nymphs; details: 120 h, application rate 200 ppm, 5 days after infestation, read-out: effect in at least one of the two categories (mortality or growth inhibition)
Protocol: Example B3: Euschistus heros (Neotropical Brown Stink Bug)
Soybean leaves on agar in 24-well microtiter plates were sprayed with aqueous test solutions prepared from 10′000 ppm DMSO stock solutions. After drying the leaves were infested with N2 nymphs. The samples were assessed for mortality and growth inhibition in comparison to untreated samples 5 days after infestation.

[11] = tested on: Aedes aegypti; assay: Aedes aegypti (yellow fever mosquito), dry deposit in 12 well plates, adult females; details: application rate 200 ppm in ethanol, after 48 h and/or 24 h
Protocol: Example B12: Aedes aegypti (Yellow Fever Mosquito)
Test solutions, at an application rate of 200 ppm in ethanol, were applied to 12 well tissue culture plates. Once the deposits were dry, five, two to five day old adult female Aedes aegypti were added to each well, and sustained with a 10% sucrose solution in a cotton wool plug. Assessment of knockdown was made one hour after introduction, and mortality was assessed at 24 and 48 hours after introduction.

CCS(=O)(=O)c1cc(C(F)(F)F)cnc1-c1nc2cc(OC(F)F)ncc2n1C [Compound P6, 6-(difluoromethoxy)-2-[3-ethylsulfonyl-5-(trifluoromethyl)-2-pyridyl]-3-methyl-imidazo[4,5-c]pyridine]
≥ 80%: percent effect (mortality or growth inhibition) at 200 ppm [1] | percent control (mortality, anti-feedant effect or growth inhibition) at 200 ppm [2] | percent effect (mortality or growth inhibition) at 200 ppm [3] | mortality at 200 ppm [4] | mortality at 200 ppm [5] | mortality at 200 ppm [6]

CCS(=O)(=O)c1cc(C(F)(F)F)cnc1-c1nc2cc([S+]([O-])CC(F)(F)F)ncc2n1C (stereo not drawn) [Compound P15, 2-[3-Ethylsulfonyl-5-(trifluoromethyl)-2-pyridyl]-3-methyl-6-(2,2,2-trifluoroethylsulfinyl)imidazo[4,5-c]pyridine]
≥ 80%: mortality at 24 ppm [7] | percent effect (mortality or growth inhibition) at 200 ppm [1] | percent effect (mortality, anti-feeding or growth inhibition) at 12.5 ppm [8] | pest or weed control at 200 ppm [9] | percent effect (mortality or growth inhibition) at 200 ppm [10] | percent control (mortality, anti-feedant effect or growth inhibition) at 200 ppm [2] | percent effect (mortality or growth inhibition) at 200 ppm [3] | mortality at 200 ppm [4] | pest or weed control at 200 ppm [11] | mortality at 200 ppm [5] | mortality at 200 ppm [6]

CCS(=O)(=O)c1cc(C(F)(F)F)cnc1-c1nc2cc(OC(F)(F)Br)ncc2n1C [Compound P5, 6-[bromo(difluoro)methoxy]-2-[3-ethylsulfonyl-5-(trifluoromethyl)-2-pyridyl]-3-methyl-imidazo[4,5-c]pyridine]
≥ 80%: percent effect (mortality or growth inhibition) at 200 ppm [1] | percent effect (mortality, anti-feeding or growth inhibition) at 12.5 ppm [8] | pest or weed control at 200 ppm [9] | percent effect (mortality or growth inhibition) at 200 ppm [10] | percent control (mortality, anti-feedant effect or growth inhibition) at 200 ppm [2] | mortality at 200 ppm [4] | pest or weed control at 200 ppm [11] | mortality at 200 ppm [5] | mortality at 200 ppm [6]

CCS(=O)(=O)c1cc(C(F)(F)F)cnc1-c1nc2cc(SCC(F)(F)F)ncc2n1C [Compound P17, 2-[3-Ethylsulfonyl-5-(trifluoromethyl)-2-pyridyl]-3-methyl-6-(2,2,2-trifluoroethylsulfanyl) imidazo[4,5-c]pyridine]
≥ 80%: percent effect (mortality or growth inhibition) at 200 ppm [1] | mortality at 200 ppm [4]

CCS(=O)(=O)c1cc(Br)cnc1-c1nc2cc(SC(F)(F)F)ncc2n1C [Compound P16]
≥ 80%: percent effect (mortality or growth inhibition) at 200 ppm [1] | percent effect (mortality, anti-feeding or growth inhibition) at 12.5 ppm [8] | pest or weed control at 200 ppm [9] | percent effect (mortality or growth inhibition) at 200 ppm [10] | percent control (mortality, anti-feedant effect or growth inhibition) at 200 ppm [2] | percent effect (mortality or growth inhibition) at 200 ppm [3] | mortality at 200 ppm [4] | pest or weed control at 200 ppm [11] | mortality at 200 ppm [5] | mortality at 200 ppm [6]

CCS(=O)(=O)c1cc(C(F)(F)F)cnc1-c1nc2cc(OCC(F)(F)F)ncc2n1C [Compound P14]
≥ 80%: mortality at 24 ppm [7] | percent effect (mortality or growth inhibition) at 200 ppm [10] | mortality at 200 ppm [4]

CCS(=O)(=O)c1cc(C(F)(F)F)cnc1-c1nc2cc(OCC(F)F)ncc2n1C [Compound P3]
≥ 80%: percent effect (mortality or growth inhibition) at 200 ppm [1] | percent effect (mortality, anti-feeding or growth inhibition) at 12.5 ppm [8] | percent effect (mortality or growth inhibition) at 200 ppm [10] | percent control (mortality, anti-feedant effect or growth inhibition) at 200 ppm [2] | percent effect (mortality or growth inhibition) at 200 ppm [3] | mortality at 200 ppm [4]

CCSc1cc(C(F)(F)F)cnc1-c1nc2cc(SC(F)(F)F)ncc2n1C [Compound P11, 2-[3-Ethylsulfanyl-5-(trifluoromethyl)-2-pyridyl]-3-methyl-6-(trifluoromethylsulfanyl)imidazo[4,5-c]pyridine]
≥ 80%: percent effect (mortality or growth inhibition) at 200 ppm [1] | pest or weed control at 200 ppm [9] | percent effect (mortality or growth inhibition) at 200 ppm [10] | percent control (mortality, anti-feedant effect or growth inhibition) at 200 ppm [2] | percent effect (mortality or growth inhibition) at 200 ppm [3] | mortality at 200 ppm [4] | pest or weed control at 200 ppm [11]

CCS(=O)(=O)c1cc(C(F)(F)F)cnc1-c1nc2cc(OC)ncc2n1C [Compound P2]
≥ 80%: mortality at 24 ppm [7]

CCSc1cc2nc(-c3ncc(C(F)(F)F)cc3SCC)n(C)c2cn1 [Compound P1]
≥ 80%: percent effect (mortality or growth inhibition) at 200 ppm [1] | percent effect (mortality or growth inhibition) at 200 ppm [10] | percent effect (mortality or growth inhibition) at 200 ppm [3]

CCSc1cc(C(F)(F)F)cnc1-c1nc2cc(OC(F)F)ncc2n1C [Compound P13, 6-(difluoromethoxy)-2-[3-ethylsulfanyl-5-(trifluoromethyl)-2-pyridyl]-3-methyl-imidazo[4,5-c]pyridine]
≥ 80%: percent effect (mortality or growth inhibition) at 200 ppm [1] | pest or weed control at 200 ppm [9] | percent effect (mortality or growth inhibition) at 200 ppm [10] | percent effect (mortality or growth inhibition) at 200 ppm [3] | mortality at 200 ppm [4] | pest or weed control at 200 ppm [11] | mortality at 200 ppm [5]

CCSc1cc(C(F)(F)F)cnc1-c1nc2cc(OC(F)F)ncc2n1C [Compound P7]
≥ 80%: percent control (mortality, anti-feedant effect or growth inhibition) at 200 ppm [2]

Reference: US10385048B2, “Pesticidally active polycyclic derivatives with sulfur containing substituents” (Syngenta Participations AG, priority 2014, dated 2019)
